Patent US7629317B2, “Control of growth and repair of gastro-intestinal tissues by gastrokines and inhibitors” (The University of Chicago, priority 2001, dated 2009)
Where “and” joins values, the source holds several entries; their conditions need not be identical. Identical values can stand only once. Entries after “also recorded” stand apart in the source; their conditions may differ.

Columns and labels:
IEC-18 cells [1] = assay: Growth of confluent cultures of IEC-18 cells (cell count); format: cell-based, rat; settings: confluent IEC-18 cultures, FIG. 13; read-out: half-maximal concentration (K1/2) for growth stimulation
Procedure: Confluent cultures of IEC-18 cells were prepared. One day later, medium was aspirated and replaced with 5 ml of DMEM containing CS (0.5%) and insulin, without (control) or with mitogenic peptide 58-99 (8 μg/ml). Sister plates receiving 1 ml medium and different amounts of peptide 67-85 were incubated at 1 hr at 38° C. on a CO2 incubator, and then an additional 4 ml of medium was added to each dish. Peptide 58-99 was added to 2 of the 4-sister plates at each concentration of peptide 67-85, and the number of cells was counted. […] Stimulation of cell growth by mitogenic peptide 58-99 was completely abolished by preincubation of cells with 0.25 μg/ml of peptide 67-85. […] Values for the number of cells per culture are shown relative to multiplication of cells exposed to the vehicle during the same period.
Urea (6 M) was employed to release proteins from the insoluble fraction solubilize rhAMP-18 containing the His6-tag (SEQ ID NO: 16), and make it available to bind to the Ni^2+-charged resin from which it was subsequently eluted with a gradient of imidazole (0 to 200 mM). The amount of eluted rhAMP-18 was measured using the BCA assay, and the appearance of a single band at the predicted size of 19-20 kD was confirmed by SDS-PAGE followed by immunoblotting. To determine if eluted rhAMP-18 renatured to assume a structure that was mitogenic, aliquots of the eluate (following removal of urea and imidazole by dialysis) were added to cultures of IEC-18 cells and the number of cells was counted 4 days later. […] AMP peptide 77-97 refers to the mature protein; same as peptide 97-117 of human precursor protein: Table 1. These observations indicate that biologically active recombinant human AMP-18 that can be utilized in diverse clinical situations is available. The mitogenic potency of rhAMP-18 is in the nanomolar range which would be expected for a native gastric cell growth factor that participates in the maintenance and repair of the stomach in vivo.
(§1) To characterize the capacity of gastric and intestinal cells to respond to AMP-18, AGS gastric adenocarcinoma cells, HAE human gastric antrum mucosa primary cultures transformed with SV40 large T antigen, rat diploid small intestinal epithelial cells of the IEC-6 (FIG. 15) and IEC-18 lines, NCI N-87 gastric carcinoma cells, and SK-GT5 gastroesophageal adenocarcinoma cells were studied; human WI-38 fibroblasts and HeLa cells served as non-GI control cell lines. Mitogenesis was assayed by performing cell counts 3 to 4 days after exposing cells to the agent of interest, trypsinizing the culture to prepare single cells, and confirming this while counting them in a hemocytometer.

IEC-6 cells = assay: Growth of intestinal epithelial IEC-6 cells (cell count); format: cell-based, rat
Procedure: IEC-6 cells were grown in 60-mm dishes. […] Values are means±SE for 3 cultures.
as §1

IEC-18 cells [2] = assay: Wound restitution (migration) of scrape-wounded IEC-18 cell monolayers; format: cell-based, rat
Procedure: Confluent monolayer cultures were mechanically wounded by scraping with a razor blade, and the distance that cells migrated from the wound edge was measured using a microscope eyepiece reticle.
In a separate set of experiments DSS reduced restitution of scrape-wounded cultures of non-transformed diploid rat intestinal epithelial IEC-18 cells (P<0.001) (FIG. 29, right panel). When DSS was removed by aspirating the medium and the cultures allowed to recover for 24 hr after scrape wounding, cell migration during the next 24 hr was 40% greater in the presence of AMP peptide compared to vehicle (P<0.001).

[3] = system: occludin, ZO-1, ZO-2, claudin-5, E-cadherin, JAM; assay: Accumulation of tight and adherens junction proteins in C2 cells (immunoblot of insoluble fraction, confocal microscopy); format: cell-based, human
Procedure: To find out how the peptide exerts its cytoprotective effect, C2 cell monolayers were treated with AMP peptide, and oxidant injury was induced with monochloramine 18 hours later. Changes in the levels of specific tight junction (TJ) proteins were checked. Cells were lysed, and proteins of the insoluble/particulate fraction were studied by immunoblotting. […] This observation represents the first evidence that AMP peptide enhances accumulation of specific TJ proteins in colonic epithelial cells. […] To carry out this experiment, C2 cells were exposed to AMP peptide for different periods of time, the NP-40-insoluble fraction was obtained, Western blots were prepared, and the amount of each immunoreactive protein was quantified. A 65% increase in immunoreactivity of each protein compared to control was detected for occludin after 2 hr, and for ZO-1 at 8 hr. Hsc73, which is constitutively expressed in these cells, was not altered by exposure to AMP peptide for up to 18 hr.
Confluent monolayers of C2 cells were treated with AMP peptide or vehicle for 8 hr. Cells were then collected, proteins in the NP-40-insoluble fraction were separated by SDS-PAGE, immunoblots were prepared, and the relative amounts of immunoreactive proteins were compared by densitometric analysis. […] These changes appear relatively specific for occludin, ZO-1, ZO-2, claudin-5, E-cadherin, and JAM because they were not observed for several other proteins localized in the TJ (claudin-1, claudin-2), adherens junction (β-catenin), plasma membrane (Na-K-2Cl cotransporter, α or β subunit of Na-K-ATPase), or cytosol (Rho A, hsc73).
To better understand the mechanism(s) by which AMP peptide enhances accumulation of TJ-associated proteins, experiments were performed to determine whether the peptide exerted its effect at the apical or basolateral surface of C2 cells. Monolayers of C2 cells were grown on Transwell filters, AMP peptide (8:g/ml) was added to the apical or basolateral compartment of the Transwell, and cells were harvested 8 hr later. The NP-40-insoluble fraction was obtained, its proteins separated, and immunoblots were prepared.

WI-38 fibroblasts = assay: Growth of WI-38 fibroblasts (non-GI control); format: cell-based, human; settings: peptide up to 8 μg/ml
Procedure: as §1

Staphylococcus aureus = assay: Growth of other bacteria and fungi; format: cell-based
Streptococcus pneumoniae = assay: Growth of other bacteria and fungi; format: cell-based
[4] = system: occludin, ZO-1, ZO-2, claudin-5, E-cadherin, JAM; assay: Accumulation of tight and adherens junction proteins in C2 cells (immunoblot of insoluble fraction, confocal microscopy); format: cell-based, human; remark: listed apart in the source

LDALVKEKKLQGKGPGGPPPK [97–117, peptide 77-97 of the mature protein, same as 97-117 of the human precursor]
EC50 (IEC-18 cells [1]): ~300 nM | growth stimulation of IEC-6 cells (in words) (IEC-6 cells): stimulated growth in a concentration-dependent manner | concentration at near-maximal growth stimulation (IEC-6 cells; FIG. 15, center panel, listed as AMP peptide): 0.5 μg/ml and 0.23 μM | potency compared with EGF (IEC-6 cells; peptide 1 μg/ml vs EGF 50 ng/ml): more potent than EGF | cell migration greater than vehicle after DSS removal (IEC-18 cells [2]; 24 hr recovery after scrape wounding, next 24 hr, P<0.001): 40% | migration from the wound edge compared with control (IEC-18 cells [2]; each time point, P<0.005): migrated further | changes in claudin-1, claudin-2, β-catenin, Na-K-2Cl cotransporter, Na-K-ATPase subunits, Rho A, hsc73 [3]: not observed | increase in accumulation of junctional adhesion molecule (JAM) ([3]; 48 and 72 hr vs 0 hr): ~50% | increased accumulation of E-cadherin ([3]; 8 hr): 2 fold | increased accumulation of occludin, ZO-1, ZO-2 and claudin-5 ([3]; 8 hr, densitometric analysis): 3- to 6 fold | accumulation of occludin and ZO-1 (specificity) ([3]; 8 hr, peptides 8 μg/ml, EGF 50 ng/ml): enhanced accumulation | ZO-1 and occludin levels in the insoluble fraction versus vehicle ([3]; after oxidant injury): two-fold | accumulation of occludin and claudin-5, basolateral exposure ([3]; basolateral compartment of Transwell, 8 hr): increased accumulation | Hsc73 expression ([3]; exposure up to 18 hr): not altered | increase in occludin immunoreactivity compared to control ([3]; non-injured cells, after 2 hr): 65% | increase in ZO-1 immunoreactivity compared to control ([3]; non-injured cells, at 8 hr): 65% | occludin immunoreactivity versus vehicle-treated control cells ([3]; peptide 8 μg/ml, 18 hr, listed as AMP peptide): double | growth stimulation of WI-38 fibroblasts (WI-38 fibroblasts): does not stimulate growth | growth stimulation of WI-38 fibroblasts (WI-38 fibroblasts; listed as AMP peptide): failure | growth of Staphylococcus aureus (Staphylococcus aureus): did not alter the growth | growth of Streptococcus pneumoniae (Streptococcus pneumoniae): did not alter the growth | occludin immunoreactivity of peptide-treated cells exposed to DSS ([4]; DSS 4%, vehicle-treated declined about 50% at 1 hr, listed as AMP peptide): did not decline; also recorded: not reduced | perijunctional actin, confocal microscopy ([4]; oxidant (0.3 mM monochloramine) injury): protected | occludin immunoreactivity at cell junctions, confocal microscopy ([4]; pretreated prior to monochloramine 0.3 mM, vs untreated injured cells): more intense
